According to US8846666B2, “Oxathiazine derivatives which are substituted with benzyl or heteromethylene groups, method for producing them, their use as medicine and drug containing said derivatives and the use thereof” (Sanofi, priority 2011, dated 2014):
pIC50: −log10 of the molar value.

Target: human 11β-HSD1 microsome fraction (Homo sapiens, UniProt P28845)
Assay: Enzymatic 11Beta-HSD1 test (SPA-based detection)
Type: biochemical
Conditions: [1,2-3H]-cortisone, NADPH, 37° C. for 1 hour
Protocol: Enzymatic 11Beta-HSD1 Test:
To measure the activity of the compounds, an SPA-based detection method (Solly et al. 2005) was employed. First of all, 20 μl of the human 11β-HSD1 microsome fraction (0.2 μg of protein), prepared in 50 mM HEPES, 0.1% BSA (w/v), were applied to a plate with 384 wells. The test compounds (0.09 μl) were applied to the assay plate in 100% DMSO. The reaction was started by addition of 20 μl of [1,2-^3H]-cortisone (0.1 μCi/[…]) in assay buffer comprising 25 mM HEPES, 100 mM KCl, 5 mM NaCl, 2 mM MgCl2 and 0.25 mM NADPH. The plate was agitated at 37° C. for 1 hour. At the same time, a stop solution comprising 20 mg/ml SPA-PVT beads, 1.6 mg/ml monoclonal cortisol antibody and 0.01 mM SSR110887 (inhibitor from the Biovitrium patent) in 50 mM HEPES, 1 M NaCl and 1 M KCl was stirred at room temperature. To stop the reaction, 25 μl of the stop solution were added to each well. The plate was agitated gently at room temperature for 1 further hour and then centrifuged at 500 gav for 1 min, in order that the SPA beads could settle out. The plate was then read in a Wallac-1450-Microbeta unit with a standard SPA program (counting time 1 min/well). The comparative compound was glycyrrhetinic acid.
Protein and radioactive substrate were dispensed with a Biomek FX unit (Beckman Coulter) for handling liquids. The test compounds were added with a Cybi-Well equipped with a 90 nl pin tool (CyBio).
Lit.: Solly S, Mundt S S, Zokian H J, Juy-Fang Ding G, Hermanowski-Vosatka A, Strulovici B and Zheng W. High-throughput screening of 11β-Hydroxysteroid dehydrogenase type 1 in scintillation proximity format. Assay Drug Dev Technol 2005; 3:377-384.

Sequence of human 11β-HSD1 microsome fraction (P28845 whole entry): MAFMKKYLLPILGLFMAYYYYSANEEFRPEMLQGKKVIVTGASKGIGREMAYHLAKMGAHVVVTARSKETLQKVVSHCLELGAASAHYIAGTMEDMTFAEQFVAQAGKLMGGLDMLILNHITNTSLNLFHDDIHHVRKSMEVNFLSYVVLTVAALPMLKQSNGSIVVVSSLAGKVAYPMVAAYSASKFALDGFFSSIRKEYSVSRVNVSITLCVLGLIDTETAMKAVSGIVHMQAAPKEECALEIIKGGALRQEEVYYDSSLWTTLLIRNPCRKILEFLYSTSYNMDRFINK

SMILES | pIC50
CC1(C)OC(N[C@@H](CCO)c2cc(F)ccc2F)=NS(=O)(=O)C1Cc1ccccc1 (stereo partly drawn) [Example 17, (S)-3-(5-Benzyl-6,6-dimethyl-4,4-dioxo-5,6-dihydro-4H-4lambda6-[1,4,3]oxathiazin-2-ylamino)-3-(2,5-difluorophenyl)-propan-1-ol] | 8.40
CC1(C)OC(N[C@@H](CCO)c2ccccc2F)=NS(=O)(=O)C1(C)Cc1ccc(-c2ccccn2)cc1 (stereo partly drawn) [Example 6, (S)-3-(2-Fluorophenyl)-3-[5,6,6-trimethyl-4,4-dioxo-5-(4-pyridin-2-yl-benzyl)-5,6-dihydro-4H-4lambda6-[1,4,3]oxathiazin-2-ylamino]-propan-1-ol] | 8.22
CC1(C)OC(N[C@@H](CCO)c2ccccc2)=NS(=O)(=O)C1Cc1ccc(Cl)cc1 (stereo partly drawn) [Example 1, (S)-3-[5-(4-Chlorobenzyl)-6,6-dimethyl-4,4-dioxo-5,6-dihydro-4H-4lambda6-[1,4,3]oxathiazin-2-ylamino]-3-phenyl-propan-1-ol] | 8.30
CN(CCO)CCCc1ccc(CC2C(C)(C)OC(N[C@@H](CCO)c3ccccc3F)=NS2(=O)=O)cc1 (stereo partly drawn) [Example 36] | 7.42
C[C@H](NC1=NS(=O)(=O)C(Cc2ccc(C3CCN(C4COC4)CC3)nc2)C(C)(C)O1)c1ccccc1F (stereo partly drawn) [Example 56, [6,6-Dimethyl-5-(1′-oxetan-3-yl-1′,2′,3′,4′,5′,6′-hexahydro-[2,4′]bipyridinyl-5-ylmethyl)-4,4-dioxo-5,6-dihydro-4H-4lambda6-[1,4,3]oxathiazin-2-yl]-[(S)-1-(2-fluorophenyl)-ethyl]-amine] | 7.62
CC1(C)OC(N[C@@H](CCO)c2ccccc2F)=NS(=O)(=O)C1Cc1ccc(-c2ccccc2)cc1 (stereo partly drawn) [Example 10, (S)-3-(5-Biphenyl-4-ylmethyl-6,6-dimethyl-4,4-dioxo-5,6-dihydro-4H-4lambda6-[1,4,3]oxathiazin-2-ylamino)-3-(2-fluoro-phenyl)-propan-1-ol] | 8.40
C[C@H](NC1=NS(=O)(=O)[C@H](Cc2ccc(C3CCN(C)CC3)cc2)C(C)(C)O1)c1ccccc1F [Example 50] | 7.28
CC1(C)OC(N[C@@H](CCO)c2cccc(F)c2Cl)=NS(=O)(=O)C1Cc1ccccc1 (stereo partly drawn) [Example 13, (S)-3-(5-Benzyl-6,6-dimethyl-4,4-dioxo-5,6-dihydro-4H-4lambda6-[1,4,3]oxathiazin-2-ylamino)-3-(2-chloro-3-fluorophenyl)-propan-1-ol] | 8.22
CC1(C)OC(N[C@@H](CCO)c2ccccc2F)=NS(=O)(=O)C1Cc1ccccc1 (stereo partly drawn) [Example 12, (S)-3-(5-Benzyl-6,6-dimethyl-4,4-dioxo-5,6-dihydro-4H-4lambda6-[1,4,3]oxathiazin-2-ylamino)-3-(2-fluorophenyl)-propan-1-ol] | 8.40
CC1(C)OC(N[C@@H](CCO)c2ccccc2F)=NS(=O)(=O)C1Cc1ccc(C2=CCNCC2)cc1 (stereo partly drawn) [Example 23, (S)-3-{6,6-Dimethyl-4,4-dioxo-5-[4-(1,2,3,6-tetrahydro-pyridin-4-yl)-benzyl]-5,6-dihydro-4H-4lambda6-[1,4,3]oxathiazin-2-ylamino}-3-(2-fluoro-phenyl)-propan-1-ol] | 7.77
C[C@H](NC1=NS(=O)(=O)C(C)(Cc2ccccc2)C(C)(C)O1)c1ccccc1F (stereo partly drawn) [Example 5, (5-Benzyl-5,6,6-trimethyl-4,4-dioxo-5,6-dihydro-4H-4lambda6-[1,4,3]oxathiazin-2-yl)-[(S)-1-(2-fluorophenyl)-ethyl]-amine] | 8.30
CC1(C)OC(N[C@@H](CCO)c2ccccc2F)=NS(=O)(=O)C1Cc1ccc(C2CCN(CCCO)CC2)cc1 (stereo partly drawn) [Example 26] | 7.80
C[C@H](NC1=NS(=O)(=O)C(Cc2ccc(C3CCN(C4CC4)CC3)cc2)C(C)(C)O1)c1ccccc1F (stereo partly drawn) [Example 43, {5-[4-(1-Cyclopropyl-piperidin-4-yl)-benzyl]-6,6-dimethyl-4,4-dioxo-5,6-dihydro-4H-4lambda6-[1,4,3]oxathiazin-2-yl}-[(S)-1-(2-fluorophenyl)-ethyl]-amine] | 7.96
CC1(C)OC(N[C@@H](CCO)c2ccc(Cl)cc2)=NS(=O)(=O)C1Cc1ccccc1 (stereo partly drawn) [Example 15, (S)-3-(5-Benzyl-6,6-dimethyl-4,4-dioxo-5,6-dihydro-4H-4lambda6-[1,4,3]oxathiazin-2-ylamino)-3-(4-chlorophenyl)-propan-1-ol] | 8.00
CC1(C)OC(N[C@@H](CCO)c2ccccc2F)=NS(=O)(=O)[C@H]1Cc1ccc(C2CCN(C3CC3)CC2)cc1 [Example 42, (S)-3-{(S)-5-[4-(1-Cyclopropyl-piperidin-4-yl)-benzyl]-6,6-dimethyl-4,4-dioxo-5,6-dihydro-4H-4lambda6-[1,4,3]oxathiazin-2-ylamino}-3-(2-fluoro-phenyl)-propan-1-ol] | 8.30
C[C@H](NC1=NS(=O)(=O)[C@H](Cc2ccc(NCCN(C)C)cc2)C(C)(C)O1)c1ccccc1F [Example 52, N-(4-{(R)-2-[(S)-1-(2-fluorophenyl)-ethylamino]-dimethyl-4,4-dioxo-5,6-dihydro-4H-4lambda6-[1,4,3]oxathiazin-5-ylmethyl}-phenyl)-N′,N′,- dimethyl-ethane-1,2-diamine] | 7.21
C[C@H](NC1=NS(=O)(=O)C(C)(Cc2ccc(Br)cc2)C(C)(C)O1)c1ccccc1F (stereo partly drawn) [Example 3, [5-(4-Bromobenzyl)-5,6,6-trimethyl-4,4-dioxo-5,6-dihydro-4H-4lambda6-[1,4,3]oxathiazin-2-yl]-[(S)-1-(2-fluorophenyl)-ethyl]-amine] | 8.40
Cc1ccc(F)cc1[C@H](CCO)NC1=NS(=O)(=O)C(Cc2ccccc2)C(C)(C)O1 (stereo partly drawn) [Example 19, (S)-3-(5-Benzyl-6,6-dimethyl-4,4-dioxo-5,6-dihydro-4H-4lambda6-[1,4,3]oxathiazin-2-ylamino)-3-(5-fluoro-2-methyl-phenyl)-propan-1-ol] | 8.40
C[C@H](NC1=NS(=O)(=O)C(Cc2ccc(N3CCN(C(C)(C)C)CC3)cc2)C(C)(C)O1)c1ccccc1F (stereo partly drawn) [Example 39, {5-[4-(4-tert-Butyl-piperazin-1-yl)-benzyl]-6,6-dimethyl-4,4-dioxo-5,6-dihydro-4H-4lambda6-[1,4,3]oxathiazin-2-yl}-[(S)-1-(2-fluorophenyl)-ethyl]-amine] | 7.77
CN(C)CCCc1ccc(CC2C(C)(C)OC(N[C@@H](CCO)c3ccccc3F)=NS2(=O)=O)cc1 (stereo partly drawn) [Example 32, (S)-3-{5-[4-(3-Dimethylamino-propyl)-benzyl]-6,6-dimethyl-4,4-dioxo-5,6-dihydro-4H-4lambda6-[1,4,3]oxathiazin-2-ylamino}-3-(2-fluorophenyl)-propan-1-ol] | 7.49
CC1(C)OC(N[C@@H](CCO)c2ccc(F)cc2F)=NS(=O)(=O)C1Cc1ccccc1 (stereo partly drawn) [Example 18, (S)-3-(5-Benzyl-6,6-dimethyl-4,4-dioxo-5,6-dihydro-4H-4lambda6-[1,4,3]oxathiazin-2-ylamino)-3-(2,4-difluorophenyl)-propan-1-ol] | 8.30
C[C@H](NC1=NS(=O)(=O)[C@@H](Cc2ccc(C3CCN(C)CC3)cc2)C(C)(C)O1)c1ccccc1F [Example 51] | 8.22
CC1(C)OC(N[C@@H](CCO)c2ccccc2F)=NS(=O)(=O)C1(C)Cc1ccc(Br)cc1 (stereo partly drawn) [Example 4, (S)-3-[5-(4-Bromobenzyl)-5,6,6-trimethyl-4,4-dioxo-5,6-dihydro-4H-4lambda6-[1,4,3]oxathiazin-2-ylamino]-3-(2-fluorophenyl)-propan-1-ol] | 8.52
CC1(C)OC(N[C@@H](CCO)c2ccccc2F)=NS(=O)(=O)[C@H]1Cc1ccc(C2CCNCC2)cc1 [Example 35, (S)-3-[(S)-6,6-Dimethyl-4,4-dioxo-5-(4-piperidin-4-yl-benzyl)-5,6-dihydro-4H-4lambda6-[1,4,3]oxathiazin-2-ylamino]-3-(2-fluorophenyl)-propan-1-ol] | 7.96
